Data from patent publication US9072728B2, “Treatment of severe distal colitis” (priority 2003, dated 2015).

Tests used:
[1] = cited from earlier work
[2] = tested on: pediatric and adult patients with active pouchitis; test: Safety and clinical outcome of rectal CLT suppositories, open-labeled dose escalating trial; format: in vivo, human
Procedure: (§1) The safety and efficacy of topical CLT therapy was also evaluated (delivered as a rectal suppository) in pediatric and adult patients with active pouchitis. In this study, subjects progressed through three escalating dosing levels: Step A (500 mg rectal suppositories applied twice daily); Step B (750 mg rectal suppositories applied twice daily); Step C (1,500 mg delivered twice daily). Serum levels (measured using a previously validated HPLC assay) were obtained within 3 to 6 hours after administering the morning (8 AM) dose of CLT and are presented in Table 2.
Rectal CLT delivered as a suppository, toxicity.
(§2) In this study, subjects were treated with escalating doses of study drug: Step A (500 mg rectal suppositories applied twice daily); Step B (750 mg rectal suppositories applied twice daily); Step C (1,500 mg delivered twice daily). Few parameters were measured including fecal lactoferrin, a marker of white blood cell excretion, to assess the effects of topical CLT therapy on PMN transmigration in patients with pouchitis. This assay has been previously validated as a quantitative biochemical measure of PMN transmigration in patients with infectious colitis and inflammatory bowel disease.

[3] = Serum CLT levels after rectal CLT suppositories (HPLC assay); format: in vivo, human
Procedure: as §1

[4] = oral CLT; mice, rats, and rabbits; cited from earlier work
[5] = oral CLT, experimental animals; cited from earlier work
[6] = tested on: IL-8 secretion in Calu-3 cells; test: IL-8 in basolateral supernatants of Calu-3 cells (ELISA); format: cell-based; conditions: for inhibition of secreted IL-8: Calu-3 cells stimulated with Salmonella, 30 μM test compound, 5 hours, FIG. 4
Procedure: Calu-3 cells were plated at subconfluency onto Costar inserts (3.0 μm membrane pore size) using standard techniques. After 24 hours, the apical well media was aspirated, and the Calu-3 cells were permitted to grow at the air/media interface. Basolateral media was changed every 2-3 days until they had grown into confluent monolayers (typically 7-10 days). Pathogenic Salmonella typhi were grown in Luria's both overnight at 37° C. (on the night prior to experimentation). The bacteria were washed twice in approximately 20 ml Hanks Balanced Salt Solution (HBSS). Prior to use, bacteria were spun down and resuspended in a total of 10 ml HBSS.
On the day of experimentation, inserts were washed in HBSS and placed into wells containing HBSS with either vehicle (0.0015% ethanol) or 30 μM of specific imidazole or non-imidazole containing test compound (all compounds were diluted from 20 mM working stock). 200 μL of bacteria were then loaded onto the apical compartment, and the cells were allowed to incubate for 5 hours. The basolateral buffer solutions from each insert were subsequently aspirated into eppendorfs and stored at −20° C. Calu-3 filters were cut and rotated for 30 minutes in 250 μL of lysis buffer [10 mL of PBS containing 1 Complete Protease Inhibitor Cocktail Tablet (Roche Pharmaceuticals) tablet and […]] at 4° C., spun at 14,000 for 20 minutes, and the clarified supernatant was stored at −20° C. Supernatant and lysate IL-8 protein content was measured by ELISA using standard techniques.

[7] = cited from earlier work; remark: listed apart in the source
[8] = tested on: IL-8 secretion from cultured intestinal (T84) epithelia; test: IL-8 secretion from cultured intestinal epithelial T84 cells; format: cell-based; conditions: T84 cells 30 minutes with CLT (30 μM) prior to stimulation with PMA, TNF or Salmonella typhimurium; each agonist; FIG. 3
Procedure: Intestinal epithelial cells play an active role in the mediation of intestinal inflammation through the production and regulated secretion of a variety of pro-inflammatory cytokines including IL-8. […] In these experiments, cultured intestinal epithelial T84 cells were incubated for 30 minutes with CLT (30 μM) prior to stimulation with either the protein kinase C stimulator PMA, the pro-inflammatory cytokine TNF, or a strain of pathogenic Salmonella typhimurium.

[9] = tested on: fecal lactoferrin, a marker of white blood cell excretion (PMN transmigration); test: Fecal lactoferrin in pouchitis patients treated with CLT suppositories; format: in vivo, human; conditions: in 6 of 8 subjects studied; rectal suppository
Procedure: as §2

[10] = oral CLT 60-90 mg/Kg body weight/day; cited from earlier work
[11] = cited from earlier work; remark: listed apart in the source
[12] = tested on: human PMN transmigration across intestinal T84 cell monolayers; test: PMN transmigration across intestinal T84 cell monolayers (in-vitro model of colitis); format: cell-based; conditions: for attenuation of PMN transepithelial migration: FIG. 2A, 2B
From the text: Recruitment of polymorphonuclear neutrophils (PMN's) across intestinal epithelia and into the lumen, resulting in mucosal ulcerations or frank crypt abscesses, occurs in a broad spectrum of infectious, inflammatory, and allergic diarrheal states, including patients with inflammation of surgically constructed ileal reservoirs (“pouchitis”). The transmigration of PMN's across the epithelial barrier represents the pathognomonic feature of acute and active chronic intestinal inflammation. Since CLT has been previously shown to inhibit PMN chemotaxis in-vitro, this study tested if CLT may also be efficacious in attenuating PMN transmigration in an established in-vitro model of colitis using intestinal T84 cell monolayers.
The efficacy of CLT was compared to other antibiotic (metronidazole) and steroid (prednisone) agents that currently represent the standards of care for the topical or systemic therapy of pouchitis. […] […] As such, topical CLT treatment represents an attractive alternative for patients whose pouchitis disease has proven to be refractory to standard antibiotic or anti-inflammatory regimens. CLT may inhibit PMN transmigration by inhibiting the operation of plasma membrane K^+ or Ca^++ channels that are likely required to accommodate the volume changes necessary for PMN transmigration through epithelial intercellular tight junctions.

IL-8 within Calu-3 cells = test: IL-8 in Calu-3 cell lysates (ELISA); format: cell-based; conditions: FIG. 5
[13] = Safety laboratory data for CLT retention enemas; format: in vivo, human; conditions: change from baseline; retention enemas daily 3500-4000 mg; n=9
Procedure: In addition to efficacy data, safety data was also gathered for the use of CLT in retention enemas administered daily in a dose of 3500-4000 mg in the same group of patients. The following parameters were measured: urea nitrogen, Creatinine, aspartate aminotransferase (AST or SGOT), alanine aminotransferase (ALT or SGPT), alkaline phosphatase (Alk Phos), Total Bilirubin, Direct Bilirubin, Albumin, and Hematocrit.

[14] = after application of one vaginal tablet
[15] = PMN's and T84 cells incubated with 30 μM of study drug for 30 minutes

Clc1ccccc1C(c1ccccc1)(c1ccccc1)n1ccnc1 [CLT, clotrimazole]
serum levels ([1]; adults, oral dose of 200 mg of CLT): 200 to 350 ng/mL | drug excreted unchanged in the urine ([1]; oral CLT): only a small fraction | route of elimination ([1]; oral CLT): largely in the feces via biliary excretion | blood levels in oil solvent relative to tablet forms ([1]; oral, drug delivered in an oil solvent vs tablet): 3-4 times higher | adverse effect of CLT therapy ([2]; subject one): no significant adverse effect | changes in urinary sediment or serum BUN or creatinine values ([2]; subjects other than ZP): No other subjects participating in the study demonstrated any significant changes | tolerability ([2]; topical CLT delivered as a rectal suppository, pediatric and adult patients): generally well tolerated | Serum CLT levels, Step A ([3]; 500 mg rectal suppositories twice daily, 3 to 6 hours after morning dose, one line per subject): below the level of detection | systemic absorption from ileal pouches (measured as serum CLT concentration) ([3]; rectal suppository): generally poor systemic absorption | serum CLT level at the time of renal diagnosis ([3]; subject two, CLT suppositories): 0.08 µM | LD50 [4]: 700-1,000 mg/Kg | subacute and chronic toxicity, organs involved [5]: liver (degenerative changes) and the adrenal gland (increased fat deposition) | time to reversal of liver and adrenal changes after discontinuation of therapy [5]: ≤ 6 months | inhibition of secreted IL-8 [6]: High level of IL-8 inhibition | IL-8 in supernatants, time-course ([6]; at 5 hours, Calu-3 cells pretreated, FIGS. 6 and 7): no IL-8 in the supernatants | side effects of mucosal preparations ([7]; 1% vaginal cream, 100 mg and 500 mg tablets): minimal side effects | concurrent plasma levels [7, 14]: lower than 0.01 μg/ml | time fungicidal concentrations of CLT detected in vaginal fluid [7, 14]: up to 3 days | central nervous system abnormalities ([7]; topical application of CLT): No central nervous system abnormalities | IL-8 secretion [8]: inhibited completely | reduction of PMN excretion (fecal lactoferrin) [9]: 77% | patients reporting gastrointestinal complaints (nausea, vomiting, and diarrhea) [10]: 13% | patients who developed chemical cystitis [10]: 4.4% | patients who developed contact dermatitis [10]: 2.2% | patients who found the therapy intolerable [10]: 6.5% | patients who tolerated CLT therapy moderately well [10]: 18.5% | patients who tolerated CLT therapy well [10]: 64% | serum CLT levels on continued therapy ([11]; after one week of continued daily therapy with oral tablets): seemed to decline | adverse effect after first dose ([11]; normal volunteers, oral CLT in oil form, first dose of 1,000 mg): severe vertigo | time to disappearance of all neurological symptoms after discontinuing CLT therapy ([11]; normal volunteers, oral CLT in oil form): ≤ 24 hours | attenuation of PMN transepithelial migration [12, 15]: more potent | inhibition of transepithelial migration ([12]; incubation of T84 monolayers alone with CLT, prior to layering of untreated PMN's, compared with PMN pretreatment, FIG. 1): equal or greater extent | PMN transmigration ([12]; pretreatment of PMN's alone with CLT (30 μM) for 30 minutes, FIG. 1): inhibited significantly | effect on intracellular IL-8 (IL-8 within Calu-3 cells; PMA stimulation): no effect | decrease in IL-8 in Calu-3 cell lysates (IL-8 within Calu-3 cells; Salmonella stimulation, 30 μM test compound, 5 hours): virtually no decrease | ALBUMIN, Change, MAX [13]: 1.1 G/DI | ALBUMIN, Change, MEAN [13]: 0.1 G/DI | ALBUMIN, Change, MEDIAN [13]: 0.0 G/DI | ALBUMIN, Change, MIN [13]: −0.4 G/DI | ALKALINE PHOSPHATASE, Change, MAX [13]: 37.0 U/L | ALKALINE PHOSPHATASE, Change, MEAN [13]: −2.4 U/L | ALKALINE PHOSPHATASE, Change, MEDIAN [13]: 1.0 U/L | ALKALINE PHOSPHATASE, Change, MIN [13]: −60.0 U/L | CREATININE, Change, MAX [13]: 0.1 mg/dL | CREATININE, Change, MEAN [13]: -0.0 mg/dL | CREATININE, Change, MEDIAN [13]: -0.1 mg/dL | CREATININE, Change, MIN [13]: -0.2 mg/dL | DIRECT BILIRUBIN, Change, MAX [13]: 0.1 mg/dL | DIRECT BILIRUBIN, Change, MEAN [13]: -0.0 mg/dL | DIRECT BILIRUBIN, Change, MEDIAN [13]: 0.0 mg/dL | DIRECT BILIRUBIN, Change, MIN [13]: -0.1 mg/dL | HEMATOCRIT, Change, MAX [13]: 5.9% | HEMATOCRIT, Change, MEAN [13]: −0.5% | HEMATOCRIT, Change, MEDIAN [13]: 0.5% | HEMATOCRIT, Change, MIN [13]: −4.7% | SGOT (AST), Change, MAX [13]: 8.0 U/L | SGOT (AST), Change, MEAN [13]: −2.2 U/L | SGOT (AST), Change, MEDIAN [13]: −1.0 U/L | SGOT (AST), Change, MIN [13]: −16.0 U/L | SGPT (ALT), Change, MAX [13]: 8.0 U/L | SGPT (ALT), Change, MEAN [13]: 0.9 U/L | SGPT (ALT), Change, MEDIAN [13]: 0.0 U/L | SGPT (ALT), Change, MIN [13]: −6.0 U/L | TOTAL BILIRUBIN, Change, MAX [13]: 0.2 mg/dL | TOTAL BILIRUBIN, Change, MEAN [13]: -0.0 mg/dL | TOTAL BILIRUBIN, Change, MEDIAN [13]: 0.0 mg/dL | TOTAL BILIRUBIN, Change, MIN [13]: -0.5 mg/dL | UREA NITROGEN (BUN), Change, MAX [13]: 4.0 mg/dL | UREA NITROGEN (BUN), Change, MEAN [13]: 0.1 mg/dL | UREA NITROGEN (BUN), Change, MEDIAN [13]: 0.0 mg/dL | UREA NITROGEN (BUN), Change, MIN [13]: -5.0 mg/dL

OC(Cn1cncn1)(Cn1cncn1)c1ccc(F)cc1F [fluconazole]
inhibition of secreted IL-8 [6]: Considerably less inhibition

c1c[nH]cn1 [imidazole]
inhibition of secreted IL-8 [6]: Considerably less inhibition

CCC(C)n1ncn(-c2ccc(N3CCN(c4ccc(OCC5COC(Cn6cncn6)(c6ccc(Cl)cc6Cl)O5)cc4)CC3)cc2)c1=O (stereo not shown) [itraconazole]
inhibition of secreted IL-8 [6]: No inhibition

Cc1ncc([N+](=O)[O-])n1CCO [metronidazole]
inhibition of PMN transmigration ([12]; PMN's and T84 cells incubated with 30 μM of study drug for 30 minutes, FIG. 2B): 30-40%

C[C@]12C=CC(=O)C=C1CC[C@@H]1[C@@H]2C(=O)C[C@@]2(C)[C@H]1CC[C@]2(O)C(=O)CO [prednisone]
attenuation of PMN transepithelial migration [12, 15]: no attenuation
